Measured values taken from patent US10829473B2, “Modulators of the cystic fibrosis transmembrane conductance regulator protein and methods of use” (AbbVie Overseas S.Á.R.L., priority 2017, dated 2020).
Where two headings read alike, the source gives them in different places. Marks after values point to notes of the source that are not given here.

Target: T1, F508delCFTR (Homo sapiens, UniProt P13569, DEL508-508)
T1 construct: expressed in transfected cells; host or cells: CFBE41o- human lung derived epithelial cells (CFBE41o-F508delCFTR-HRP), doxycycline-inducible
T1 sequence (P13569 with tags, fused parts or gaps DEL508-508): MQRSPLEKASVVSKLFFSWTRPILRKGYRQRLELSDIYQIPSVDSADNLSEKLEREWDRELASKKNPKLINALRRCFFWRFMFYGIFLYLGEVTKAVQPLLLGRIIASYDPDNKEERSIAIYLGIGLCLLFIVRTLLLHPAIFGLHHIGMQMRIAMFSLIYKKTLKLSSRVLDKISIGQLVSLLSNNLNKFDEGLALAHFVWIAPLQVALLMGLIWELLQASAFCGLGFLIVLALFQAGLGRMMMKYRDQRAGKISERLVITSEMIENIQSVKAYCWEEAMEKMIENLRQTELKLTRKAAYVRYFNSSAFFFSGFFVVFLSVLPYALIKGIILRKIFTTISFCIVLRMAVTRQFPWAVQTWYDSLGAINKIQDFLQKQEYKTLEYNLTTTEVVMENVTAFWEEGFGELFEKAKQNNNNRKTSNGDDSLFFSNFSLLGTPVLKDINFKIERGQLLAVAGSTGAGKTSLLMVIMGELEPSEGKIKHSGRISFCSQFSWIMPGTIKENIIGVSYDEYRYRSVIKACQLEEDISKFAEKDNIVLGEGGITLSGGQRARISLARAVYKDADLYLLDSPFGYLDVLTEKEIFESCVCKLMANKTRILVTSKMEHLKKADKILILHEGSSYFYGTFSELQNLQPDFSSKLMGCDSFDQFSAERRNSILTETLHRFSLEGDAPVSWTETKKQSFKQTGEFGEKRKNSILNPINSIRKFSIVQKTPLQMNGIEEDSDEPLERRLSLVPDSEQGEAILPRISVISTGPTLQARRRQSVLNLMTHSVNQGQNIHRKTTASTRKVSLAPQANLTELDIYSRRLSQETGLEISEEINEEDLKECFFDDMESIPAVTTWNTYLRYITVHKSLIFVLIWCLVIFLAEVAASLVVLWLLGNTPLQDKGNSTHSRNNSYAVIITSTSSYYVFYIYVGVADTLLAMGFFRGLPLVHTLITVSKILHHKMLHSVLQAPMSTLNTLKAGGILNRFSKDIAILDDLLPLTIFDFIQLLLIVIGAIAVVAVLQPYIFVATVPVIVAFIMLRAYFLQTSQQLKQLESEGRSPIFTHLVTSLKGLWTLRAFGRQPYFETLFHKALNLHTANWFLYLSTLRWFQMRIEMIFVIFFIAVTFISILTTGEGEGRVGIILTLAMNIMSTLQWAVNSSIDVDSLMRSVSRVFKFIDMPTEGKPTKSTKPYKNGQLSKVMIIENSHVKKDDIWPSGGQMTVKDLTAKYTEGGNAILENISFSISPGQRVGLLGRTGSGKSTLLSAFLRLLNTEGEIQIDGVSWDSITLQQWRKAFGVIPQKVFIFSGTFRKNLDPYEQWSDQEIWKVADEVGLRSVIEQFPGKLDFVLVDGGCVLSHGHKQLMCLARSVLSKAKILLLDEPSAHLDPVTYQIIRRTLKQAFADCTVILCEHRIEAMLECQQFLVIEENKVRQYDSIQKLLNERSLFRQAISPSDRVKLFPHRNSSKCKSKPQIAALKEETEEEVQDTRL
Test: Cell Surface Expression-Horse Radish Peroxidase (CSE-HRP) Assay;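 for EC50 (with co-corrector): co-corrector chromenyl benzoic acid corrector at 2 or 3 µM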;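 for Maximum % activity (without co-corrector): % of on-plate positive control chromenyl benzoic acid corrector at 2 or 3 µM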
Assay type: cell-based
Conditions: for Maximum % activity (with co-corrector) / Emax: maximum at any tested concentration; for Emax: read-out: Maximum % activity (without co-corrector)
In short: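 Corrector compounds were given as 8-point 3-fold series from 20 or 30 μM, with or without a 2 μM co-corrector, for 18-24 h at 33 °C. Surface HRP was read by luminol luminescence as % of positive control; variable-Hill-slope sigmoidal fitting gave EC50 from triplicate plates.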

[1] = test compound alone, without co-corrector, read-out: EC50 (without co-corrector)
[2] = with co-corrector, read-out: EC50 (with co-corrector)
[3] = test compound with co-corrector
[4] = test compound without co-corrector

EC50 [1] [µM] | Maximum % activity (with co-corrector) (with co-corrector) | EC50 [2] [µM] | Emax (without co-corrector) [%] | Maximum % activity (with co-corrector) [3] | EC50 (test compound with co-corrector, read-out: EC50 (with co-corrector)) [µM] | Emax [4] [%] | EC50 (test compound without co-corrector, read-out: EC50 (without co-corrector)) [µM] | EC50 (with co-corrector) [3] | EC50 (without co-corrector) [4] | SMILES
3 to 10 | ++ (≥150 and <350) | 3 to 10 | < 50 |  |  |  |  |  |  | CCn1nc(C2(C(=O)NS(=O)(=O)c3cccc4ccccc34)CC2)cc1C [II-5]
> 10 | + (<150) | > 10 | < 50 |  |  |  |  |  |  | CC(C)Oc1ccc(S(=O)(=O)NC(=O)C2(c3ccc(Cl)cc3Cl)CC2)cc1 [Example III-20, 1-(2,4-dichlorophenyl)-N-{4-[(propan-2-yl)oxy]benzene-1-sulfonyl}cyclopropane-1-carboxamide]
< 3 | +++ (≥350) | < 3 | > 150 |  |  |  |  |  |  | COc1cc(C2CCC2)cc(OC)c1C1(C(=O)NS(=O)(=O)c2cccc3[nH]ccc23)CC1 [Example I-86, 1-(4-cyclobutyl-2,6-dimethoxyphenyl)-N-(1H-indole-4-sulfonyl)cyclopropane-1-carboxamide]
< 3 | +++ (≥350) | < 3 | > 150 |  |  |  |  |  |  | COc1cc(F)c(C(C)C)cc1C1(C(=O)NS(=O)(=O)c2cccc3c2CCCN3)CC1 [II-27]
> 10 | + (<150) | 3 to 10 | < 50 |  |  |  |  |  |  | O=C(NS(=O)(=O)c1ccc(Cl)cc1)C1(c2ccc(Cl)cc2Cl)CC1 [Example III-9, N-(4-chlorobenzene-1-sulfonyl)-1-(2,4-dichlorophenyl)cyclopropane-1-carboxamide]
3 to 10 | +++ (≥350) | 3 to 10 | > 150 |  |  |  |  |  |  | COC(C)(C)c1ccc(OC(F)F)c(C2(C(=O)NS(=O)(=O)c3cccc4ncccc34)CC2)c1 [II-108]
 |  |  |  | +++ (≥350) | 3 to 10 | > 150 | 3 to 10 |  |  | CCc1cnc(N2CCCC2)c(C2(C(=O)NS(=O)(=O)c3cccc4ncccc34)CC2)c1 [GII-30, 1-[5-ethyl-2-(pyrrolidin-1-yl)pyridin-3-yl]-N-(quinoline-5-sulfonyl)cyclopropane-1-carboxamide]
 |  |  |  | ++ (≥150 and <350) |  | 50 to 150 |  | ++^a | ++^a | COCCOc1cnc(OC)cc1C1(C(=O)NS(=O)(=O)c2cccc3ncccc23)CC1 [GIII-11]
3 to 10 | +++ (≥350) | < 3 | 50 to 150 |  |  |  |  |  |  | COc1ncc(C2CCC2)c(C)c1C1(C(=O)NS(=O)(=O)c2cccc3c2ccn3C)CC1 [II-41]
